In ChEMBL document CHEMBL1201862, “PubChem BioAssay data set” (2004):
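How tested: cells in 96-well plates exposed to compound for 48 hours at five concentrations. The concentration for 50% growth inhibition is given as GI50.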 The source made the active and inactive calls. Rule as the data show it: active = GI50 up to about 1.1 µM and inactive = higher. Where a SMILES comes first, the peptide text is derived from it. [ ]: non-standard residue; d: D form. The star is where a group is joined. Phe(4-NO2) = N[CH](Cc1ccc([N+](=O)[O-])cc1)C(=O)O; Cbz = O=C(OCc1ccccc1)*

Key:
Test in all cases: growth of human tumour cells (NCI), 48 h
CAKI-1 = test system: CAKI-1
NCI-H23 = test system: NCI-H23
HT-29 = test system: HT-29
A498 = test system: A498
HOP-92 = test system: HOP-92
A549 = test system: A549
SN12C = test system: SN12C
Hs-578T = test system: Hs-578T
LOX IMVI = test system: LOX IMVI
OVCAR-8 = test system: OVCAR-8
NCI/ADR-RES = test system: NCI/ADR-RES
SNB-75 = test system: SNB-75
MDA-MB-435 = test system: MDA-MB-435
UACC-257 = test system: UACC-257
SK-OV-3 = test system: SK-OV-3
HCT-116 = test system: HCT-116
SF-295 = test system: SF-295
MOLT-4 = test system: MOLT-4
IGROV-1 = test system: IGROV-1
SR = test system: SR

Measured: GI50

O=CN1CCN(C(=O)c2ccc(Cl)cc2Cl)C1=S
inactive: CAKI-1 41.1 µM | NCI-H23 > 100 µM | HT-29 > 100 µM | A498 42 µM | HOP-92 34.2 µM | A549 67.3 µM | SN12C 43 µM | Hs-578T 32.4 µM | LOX IMVI 32.3 µM | OVCAR-8 > 100 µM | NCI/ADR-RES > 100 µM | SNB-75 21 µM | MDA-MB-435 43.9 µM | UACC-257 > 100 µM | SK-OV-3 > 100 µM | HCT-116 > 100 µM | SF-295 > 100 µM | MOLT-4 > 100 µM | IGROV-1 > 100 µM

CCOC(=O)CCC(NC(=O)OCc1ccccc1)C(=O)NC(CCC(=O)OCC)C(=O)NC(Cc1ccc([N+](=O)[O-])cc1)C(=O)NC(CCC(=O)OCC)C(=O)NC(CCC(=O)OCC)C(=O)OCC (centres undefined) (Cbz-E(OEt)E(OEt)[Phe(4-NO2)]E(OEt)E(OEt)-OEt; configuration not given here)
inactive: CAKI-1 > 100 µM | NCI-H23 > 100 µM | HT-29 > 100 µM | A549 > 100 µM | SN12C > 100 µM | Hs-578T > 100 µM | LOX IMVI > 100 µM | OVCAR-8 > 100 µM | NCI/ADR-RES > 100 µM | SNB-75 > 100 µM | MDA-MB-435 > 100 µM | SR > 100 µM | UACC-257 > 100 µM | SK-OV-3 > 100 µM | HCT-116 > 100 µM | SF-295 > 100 µM | MOLT-4 > 100 µM | IGROV-1 > 100 µM

Oc1cccc2cc(Cl)cnc12
inactive: CAKI-1 55.1 µM | NCI-H23 6.12 µM | HT-29 28.2 µM | A498 23.8 µM | HOP-92 43.2 µM | A549 7.08 µM | SN12C 7.33 µM | Hs-578T 6.93 µM | LOX IMVI 5.04 µM | OVCAR-8 3.7 µM | NCI/ADR-RES 3.48 µM | SNB-75 28.1 µM | MDA-MB-435 14.7 µM | UACC-257 6.27 µM | SK-OV-3 50.4 µM | HCT-116 4.46 µM | SF-295 3.39 µM | MOLT-4 3.78 µM | IGROV-1 7.16 µM

Oc1c2cc(Cl)cc1COCc1cc(Cl)cc(c1O)COCc1cc(Cl)cc(c1O)COC2
inactive: NCI-H23 20.8 µM | A498 82.8 µM | HOP-92 6.9 µM | A549 34.8 µM | LOX IMVI 36.7 µM | OVCAR-8 11.8 µM | NCI/ADR-RES 38.8 µM | SNB-75 17.8 µM | MDA-MB-435 40.7 µM | SR > 100 µM | UACC-257 > 100 µM | SK-OV-3 59.6 µM | HCT-116 8.13 µM | SF-295 > 100 µM | IGROV-1 17 µM

O=C(CSc1nc2ccc(I)cc2c(=O)n1Cc1ccccc1)NN1C(=O)CCC1=O
inactive: CAKI-1 1.65 µM | NCI-H23 17.6 µM | HT-29 48.6 µM | HOP-92 25.5 µM | A549 49.4 µM | SN12C 35.7 µM | LOX IMVI 59.3 µM | OVCAR-8 37.6 µM | NCI/ADR-RES 37.2 µM | SNB-75 36.3 µM | MDA-MB-435 64.1 µM | SR 31.9 µM | UACC-257 45 µM | SK-OV-3 52 µM | HCT-116 43.3 µM | SF-295 37.9 µM | MOLT-4 42.1 µM | IGROV-1 29.9 µM

CCN(CCCN(CC)C(=O)Nc1ccccc1)C(=O)Nc1ccccc1
inactive: CAKI-1 > 100 µM | NCI-H23 > 100 µM | HT-29 > 100 µM | HOP-92 > 100 µM | A549 > 100 µM | SN12C > 100 µM | LOX IMVI > 100 µM | OVCAR-8 > 100 µM | NCI/ADR-RES > 100 µM | SNB-75 > 100 µM | MDA-MB-435 > 100 µM | SR > 100 µM | UACC-257 > 100 µM | SK-OV-3 > 100 µM | HCT-116 > 100 µM | SF-295 > 100 µM | MOLT-4 > 100 µM | IGROV-1 > 100 µM

CN(C)C1(N(C)C)Oc2c(c(=O)n(C)c(=O)n2C)C(c2ccccc2)C1(F)F (centres undefined)
inactive: CAKI-1 > 100 µM | NCI-H23 > 100 µM | A498 > 100 µM | HOP-92 > 100 µM | A549 > 100 µM | LOX IMVI > 100 µM | NCI/ADR-RES > 100 µM | SNB-75 > 100 µM | MDA-MB-435 > 100 µM | UACC-257 > 100 µM | SK-OV-3 > 100 µM | HCT-116 > 100 µM | SF-295 > 100 µM | MOLT-4 > 100 µM

CC1=NN(C(=O)CC(=O)N(C(=O)c2ccccc2)c2ccc(Cl)cc2)C(=O)C1/N=N/c1ccc([N+](=O)[O-])cc1 (centres undefined)
inactive: CAKI-1 > 10 µM | NCI-H23 > 10 µM | HT-29 > 10 µM | A498 > 10 µM | HOP-92 > 10 µM | A549 > 10 µM | SN12C > 10 µM | Hs-578T > 10 µM | LOX IMVI > 10 µM | OVCAR-8 > 10 µM | NCI/ADR-RES > 10 µM | SNB-75 > 10 µM | MDA-MB-435 > 10 µM | UACC-257 > 10 µM | SK-OV-3 > 10 µM | HCT-116 > 10 µM | SF-295 > 10 µM | MOLT-4 6.49 µM | IGROV-1 > 10 µM

COC(=O)c1c(OC)cc2cc3c(c(O)c2c1C)C(=O)C1(O)C(=O)C=C(OC)C(OC(=O)CC(C)N)=C1C3=O (centres undefined)
inactive: CAKI-1 14.2 µM | NCI-H23 8.95 µM | HT-29 4.88 µM | HOP-92 18.2 µM | A549 18.6 µM | SN12C > 100 µM | Hs-578T 7.52 µM | LOX IMVI 8.49 µM | OVCAR-8 11.9 µM | NCI/ADR-RES 23.2 µM | SNB-75 2.54 µM | MDA-MB-435 41.2 µM | SR 12.9 µM | UACC-257 19.4 µM | HCT-116 4.28 µM | SF-295 7.69 µM | MOLT-4 5.32 µM | IGROV-1 13.6 µM

[N-]=[N+]=Nc1c(Cc2ccccc2)c(=O)oc2ccccc12
inactive: CAKI-1 23.8 µM | NCI-H23 26.4 µM | HT-29 21.7 µM | A549 32.5 µM | SN12C > 10 µM | Hs-578T 19.1 µM | LOX IMVI 14.2 µM | NCI/ADR-RES 27.6 µM | SNB-75 28.6 µM | MDA-MB-435 22.3 µM | SR 33.4 µM | UACC-257 45.8 µM | SK-OV-3 32.1 µM | HCT-116 > 10 µM | SF-295 33.4 µM | MOLT-4 5.06 µM | IGROV-1 21.5 µM

NC(=O)Cc1nc2c(O)ncnc2n1C1OC(CO)C(O)C1O (centres undefined)
inactive: CAKI-1 > 100 µM | NCI-H23 > 100 µM | HT-29 > 100 µM | A498 > 100 µM | HOP-92 > 100 µM | A549 > 100 µM | SN12C > 100 µM | Hs-578T > 100 µM | LOX IMVI > 100 µM | OVCAR-8 > 100 µM | NCI/ADR-RES > 100 µM | SNB-75 > 100 µM | MDA-MB-435 > 100 µM | UACC-257 > 100 µM | SK-OV-3 > 100 µM | HCT-116 > 100 µM | SF-295 > 100 µM | MOLT-4 > 100 µM | IGROV-1 > 100 µM

CC1C(c2ccc3c(c2)OCO3)c2cc3c(cc2OC1N1CCCC1)OCO3 (centres undefined)
inactive: CAKI-1 11.6 µM | NCI-H23 38.7 µM | HT-29 31 µM | A549 31.3 µM | SN12C 39.6 µM | Hs-578T 10.6 µM | LOX IMVI 34.8 µM | OVCAR-8 35.8 µM | NCI/ADR-RES 29.2 µM | SNB-75 15.1 µM | MDA-MB-435 5.52 µM | SR 35.5 µM | UACC-257 34.5 µM | HCT-116 18 µM | SF-295 24 µM | MOLT-4 27.4 µM | IGROV-1 30.3 µM

Cc1ccc(C2SCC(=O)N2NC(=O)c2ccncc2)s1 (centres undefined)
inactive: CAKI-1 > 100 µM | NCI-H23 > 100 µM | HT-29 > 100 µM | A498 > 100 µM | HOP-92 > 100 µM | A549 > 100 µM | SN12C > 100 µM | LOX IMVI > 100 µM | OVCAR-8 > 100 µM | NCI/ADR-RES > 100 µM | MDA-MB-435 > 100 µM | SR > 100 µM | UACC-257 > 100 µM | SK-OV-3 > 100 µM | HCT-116 > 100 µM | SF-295 > 100 µM | MOLT-4 > 100 µM | IGROV-1 > 100 µM

COC(C)(C)C(O)C(O)C[C@H](C)C1CC=C2C1(C)CCC1[C@@]3(C)CCC(OC(C)=O)C(C)(C)C3CC(OC3OC(COC(C)=O)C(O)C(O)C3O)[C@@]21C (some centres undefined)
inactive: CAKI-1 > 10 µM | NCI-H23 4.85 µM | HT-29 3.41 µM | A498 3.31 µM | HOP-92 3.6 µM | A549 4.13 µM | SN12C 4.2 µM | Hs-578T 4.37 µM | LOX IMVI 2.32 µM | OVCAR-8 3.72 µM | NCI/ADR-RES > 10 µM | SNB-75 3.7 µM | MDA-MB-435 3.24 µM | UACC-257 3.02 µM | SK-OV-3 > 10 µM | HCT-116 3 µM | SF-295 3.03 µM | MOLT-4 1.93 µM | IGROV-1 2.78 µM

COc1ccc(C(=O)/C=C/c2ccc(OCCCOc3ccc(/C=C/C(=O)c4ccc(OC)c(OC)c4)cc3)cc2)cc1OC
inactive: CAKI-1 > 100 µM | HT-29 > 100 µM | A549 > 100 µM | SN12C > 100 µM | Hs-578T > 100 µM | OVCAR-8 > 100 µM | NCI/ADR-RES > 100 µM | SNB-75 > 100 µM | MDA-MB-435 > 100 µM | SR > 100 µM | UACC-257 > 100 µM | SK-OV-3 > 100 µM | HCT-116 > 100 µM | SF-295 > 100 µM | MOLT-4 > 100 µM | IGROV-1 > 100 µM
